Here are results for 3 compounds from US8557559B2, “Self-dying recombinant microorganism for measuring soil and water contamination” (priority 2010, dated 2013).

Structures are written as SMILES.

Format in all cases: cell-based
Experiment [1] concerns recombinant strain, Sphingomonas paucimobilis (SEQ ID NO. 1). Briefly: Verification of substrate specificity: fluorescence reaction of recombinant strain in inorganic medium (LIVE/DEAD BacLight staining, micro-plate reader). Particulars: inorganic medium with pyruvate; about 50 mg/L through about 500 mg/L; FIG. 2. On the procedure:
Phenanthrene was added to an inorganic medium including pyruvate as a carbon source, up to phenanthrene concentrations of about 50 mg/L through about 500 mg/L, the recombinant strain was inoculated, and a sample was taken every 24-hour and stained using LIVE/DEAD BacLight bacterial viability kit (Molecular Probes, L7012) and a fluorescence reaction was measured by a micro-plate reader.
A reaction of the recombinant strain with respect to an inorganic medium including hexane and hexadecane that are aliphatic hydrocarbon having the equivalent concentration, hexane concentrations being about 50 mg/L through about 500 mg/L and hexadecane concentrations being about 50 mg/L through about 500 mg/L, and a reaction of the recombinant strain with respect to an inorganic medium including toluene that is a monoaromatic hydrocarbon, toluene concentrations being about 1 mg/L through about 50 mg/L, were respectively measured for comparison.
The LIVE/DEAD BacLight bacterial viability kit is a dying scheme that labels, using a DNA-binding dye, DNA of a live microorganism with green fluorescence and labels, using […], DNA of dead microorganism with red fluorescence and thus, indicates a viability of microorganisms.
The reaction of the recombinant strain was expressed by a relative fluorescence intensity FL/FL0, that is, a value obtained by dividing a fluorescence reaction value FL of a recombinant strain exposed to a target contaminant by a fluorescence reaction value FL0 of a recombinant strain that is not exposed to the target contaminant. The relative fluorescence intensity FL/FL0 expresses the reaction of the recombinant strain, which is based on a concentration of contaminant, with a rate of decreasing fluorescence and thus, an error rate may be reduced during a test, and a concentration of toxicity may be expressed with a standardized fluorescence intensity value.

For experiment [2] the test system is unchanged. Briefly: Performance of recombinant strain in model soil (Ottawa sand), CLSM fluorescence quantified with ImageJ. Conditions: model soil contaminated 50 mg/kg to 1000 mg/kg; FIG. 3. An excerpt: (§1) A confocal laser scanning microscope (CLSM) may measure a fluorescence reaction of the mixture of a soil sample and microorganisms to analyze phenanthrene in the soil sample. An image including measured green fluorescence and measured red fluorescence may be converted into a grayscale image after removing the measured red fluorescence from the image based on Adobe Photoshop CS4 (Adobe Systems, CA, USA). An integrated fluorescence intensity in an image of 254×254 pixels was quantified using a measure function of ImageJ program (ImageJ; Rasband, 1997-2009). The integrated fluorescence intensity may be a value obtained by dividing sum of illuminance of all the pixels by a number of the pixels in the image.
Ottawa sand was used as a model soil. The model soil was contaminated with phenanthrene up to concentrations from 50 mg/kg to 1000 mg/kg, an inorganic medium including pyruvate as a source of carbon was added, the inorganic medium of 10 mL per the model soil of 2 g, the recombinant strain was inoculated, and a sample was taken every 24-hour to measure a fluorescence response.
A fluorescence response was photographed by a CLSM to directly measure a mixture of the model soil, the liquid medium, and the recombinant strain, and the measured fluorescence reaction was quantified using an ImageJ program. […]

For experiment [3] the test system is unchanged. Briefly: Performance of recombinant strain in real soil (M soil), CLSM fluorescence. Particulars: 50 mg/kg to 1000 mg/kg, 24-hours, FIGS. 5 and 6.
Description: as §1
Phenanthrene was added to soil that had not been contaminated with phenanthrene up to concentrations from 50 mg/kg to 1000 mg/kg, an inorganic medium was added, the inorganic medium of 10 mL per soil of 2 g, the recombinant strain was inoculated and cultivated for 24-hours, and a reaction was measured in the same manner as Example 3.

Take `CCCCCCCCCCCCCCCC` [hexadecane]: the “response of the recombinant strain (relative fluorescence intensity FL/FL0)” value in experiment [1] was “may not respond”.
For `CCCCCC` [hexane], in experiment [1], the “response of the recombinant strain (relative fluorescence intensity FL/FL0)” value is listed as “may not respond”.
`c1ccc2c(c1)ccc1ccccc12` [phenanthrene]: the “response of the recombinant strain (relative fluorescence intensity FL/FL0)” value in experiment [1] was “death response”. Also, the “response of the recombinant strain to phenanthrene in Ottawa sand” value in experiment [2] is “as phenanthrene concentrations increase, a number of live microorganisms decrease”. Also, the “reaction of the recombinant strain to phenanthrene in real soil” value in experiment [3] is “significantly sensitive to phenanthrene concentrations”.
